Experimental data taken from paper PMC5701947, “β1-Adrenergic Receptor Contains Multiple IA^k and IE^k Binding Epitopes That Induce T Cell Responses with Varying Degrees of Autoimmune Myocarditis in A/J Mice” (Frontiers in Immunology, 2017).

Tested on: T cells (lymph node cells/splenocytes from immunized animals)
Assay: T cell proliferation assay ([3H]-thymidine)
Assay type: cell-based, A/J mice
Settings: fold vs medium control
Description: At termination, lymph nodes (maxillary, mandibular, axillary, inguinal, and popliteal) and spleens were harvested from immunized animals to prepare single cell suspensions. Similarly, splenocytes were prepared from naive animals. After lysing the erythrocytes and washing, cell pellets were suspended in RPMI medium containing 10% fetal bovine serum, 1 mM sodium pyruvate, 4 mM L-glutamine, 1 × each of non-essential amino acids and vitamin mixture, and 100 U/ml penicillin–streptomycin (Lonza, Walkersville, MD, USA; hereafter called growth medium). In some experiments, CD4 T cells and CD8 T cells were enriched to a purity of ~95% by negative selection based on magnetic separation using IMAG (BD Biosciences, San Jose, CA, USA) ([31]). To stimulate CD4 and CD8 T cells, syngeneic naive irradiated splenocytes loaded with peptides were used as antigen-presenting cells at a ratio of 1:1. Cells were stimulated at a density of ~5 × 10^6 cells/ml in triplicates with or without the immunizing peptides (0–100 µg/ml) in growth medium. RNase 43–56 or HEL 46–61 were used as irrelevant controls. After 2 days, cells were pulsed with tritiated ^3[H]-thymidine (1 μCi/well; MP Biomedicals, Santa Ana, CA, USA), and 16 h later, proliferative responses were measured as counts per minute (cpm) using a Wallac liquid scintillation counter (Perkin Elmer, Waltham, MA, USA) ([26], [28], [30]).

[1] = 10 μg/ml, animals immunized with pool VIII
[2] = 100 μg/ml, animals immunized with pool VIII
[3] = 10 μg/ml, animals immunized with pool I
[4] = 100 μg/ml, animals immunized with pool I
[5] = 10 μg/ml, animals immunized with pool VII
[6] = 100 μg/ml, animals immunized with pool VII
[7] = 10 μg/ml, animals immunized with pool V
[8] = 100 μg/ml, animals immunized with pool V
[9] = 10 μg/ml, animals immunized with pool II
[10] = 100 μg/ml, animals immunized with pool II
[11] = 10 μg/ml, animals immunized with pool IX
[12] = 100 μg/ml, animals immunized with pool IX
[13] = 10 μg/ml, animals immunized with pool III
[14] = 100 μg/ml, animals immunized with pool III
[15] = 10 μg/ml, animals immunized with pool VI
[16] = 100 μg/ml, animals immunized with pool VI

β1AR 371-390: 20-mer of mouse β1AR peptide library (DFRKAFQRLLCCARRAACRR; UniProt P34971 371-390, looked up, fragment)
T cell responses [1]: 1.14 fold
T cell responses [2]: 0.60 fold

β1AR 41-60: 20-mer of mouse β1AR peptide library (SLLPPASEGSAPLSQQWTAG; UniProt P34971 41-60, looked up, fragment)
T cell responses [3]: 0.84 fold
T cell responses [4]: 1.10 fold

β1AR 341-360: 20-mer of mouse β1AR peptide library (DLVPDRLFVFFNWLGYANSA; UniProt P34971 341-360, looked up, fragment)
T cell responses [5]: 1.02 fold
T cell responses [6]: 1.47 fold

β1AR 411-430: 20-mer of mouse β1AR peptide library (PSPGAPSDDDDDDAGTTPPA; UniProt P34971 411-430, looked up, fragment)
T cell responses [1]: 0.93 fold
T cell responses [2]: 0.94 fold

β1AR 221-240: 20-mer of mouse β1AR peptide library (NRAYAIASSVVSFYVPLCIM; UniProt P34971 221-240, looked up, fragment)
T cell responses [7]: 1.18 fold
T cell responses [8]: 1.01 fold

BAR 101-120: 20-mer of mouse β1AR peptide library (ASADLVMGLLVVPFGATIVV; UniProt P34971 101-120, looked up, fragment)
T cell responses [9]: 1.01 fold
T cell responses [10]: 1.02 fold

β1AR 401-420: 20-mer of mouse β1AR peptide library (SGCLARAGPPPSPGAPSDDD; UniProt P34971 401-420, looked up, fragment)
T cell responses [1]: 0.90 fold
T cell responses [2]: 0.88 fold

β1AR 21-40: 20-mer of mouse β1AR peptide library (PLPDGAATAARLLVLASPPA; UniProt P34971 21-40, looked up, fragment)
T cell responses [3]: 1.33 fold
T cell responses [4]: 1.43 fold

β1AR 441-460: 20-mer of mouse β1AR peptide library (GGTTTVDSDSSLDEPGRQGF; UniProt P34971 441-460, looked up, fragment)
T cell responses [11]: 0.79 fold
T cell responses [12]: 1.01 fold

β1AR 241-260: 20-mer of mouse β1AR peptide library (AFVYLRVFREAQKQVKKIDS; UniProt P34971 241-260, looked up, fragment)
T cell responses [7]: 1.52 fold
T cell responses [8]: 2.02 fold

β1AR 111-130: 20-mer of mouse β1AR peptide library (VVPFGATIVVWGRWEYGSFF; UniProt P34971 111-130, looked up, fragment)
T cell responses [13]: 1.97 fold
T cell responses [14]: 2.49 fold

β1AR 131-150: 20-mer of mouse β1AR peptide library (CELWTSVDVLCVTASIETLC; UniProt P34971 131-150, looked up, fragment)
T cell responses [13]: 1.28 fold
T cell responses [14]: 1.72 fold

β1AR 361-380: 20-mer of mouse β1AR peptide library (FNPIIYCRSPDFRKAFQRLL; UniProt P34971 361-380, looked up, fragment)
T cell responses [5]: 2.06 fold
T cell responses [6]: 1.82 fold

β1AR 321-340: 20-mer of mouse β1AR peptide library (VFTLCWLPFFLANVVKAFHR; UniProt P34971 321-340, looked up, fragment)
T cell responses [5]: 3.23 fold
T cell responses [6]: 2.21 fold

β1AR 431-450: 20-mer of mouse β1AR peptide library (RLLEPWTGCNGGTTTVDSDS; UniProt P34971 431-450, looked up, fragment)
T cell responses [11]: 1.14 fold
T cell responses [12]: 1.18 fold

β1AR 31-50: 20-mer of mouse β1AR peptide library (RLLVLASPPASLLPPASEGS; UniProt P34971 31-50, looked up, fragment)
T cell responses [3]: 0.97 fold
T cell responses [4]: 1.30 fold

β1AR 251-270: 20-mer of mouse β1AR peptide library (AQKQVKKIDSCERRFLGGPA; UniProt P34971 251-270, looked up, fragment)
T cell responses [7]: 1.12 fold
T cell responses [8]: 1.81 fold

β1AR 281-300: 20-mer of mouse β1AR peptide library (PGPPRPADSLANGRSSKRRP; UniProt P34971 281-300, looked up, fragment)
T cell responses [15]: 0.92 fold
T cell responses [16]: 0.93 fold

β1AR 1-20: 20-mer of mouse β1AR peptide library (MGAGALALGASEPCNLSSAA; UniProt P34971 1-20, looked up, fragment)
T cell responses [3]: 1.52 fold
T cell responses [4]: 1.90 fold

β1AR 161-180: 20-mer of mouse β1AR peptide library (TSPFRYQSLLTRARARALVC; UniProt P34971 161-180, looked up, fragment)
T cell responses [13]: 1.03 fold
T cell responses [14]: 1.29 fold

β1AR 291-310: 20-mer of mouse β1AR peptide library (ANGRSSKRRPSRLVALREQK; UniProt P34971 291-310, looked up, fragment)
T cell responses [15]: 0.87 fold
T cell responses [16]: 1.66 fold

β1AR 151-170: 20-mer of mouse β1AR peptide library (VIALDRYLAITSPFRYQSLL; UniProt P34971 151-170, looked up, fragment)
T cell responses [13]: 2.24 fold
T cell responses [14]: 2.43 fold

β1AR 91-110: 20-mer of mouse β1AR peptide library (TLTNLFIMSLASADLVMGLL; UniProt P34971 91-110, looked up, fragment)
T cell responses [9]: 1.67 fold
T cell responses [10]: 1.93 fold

β1AR 421-440: 20-mer of mouse β1AR peptide library (DDDAGTTPPARLLEPWTGCN; UniProt P34971 421-440, looked up, fragment)
T cell responses [11]: 1.12 fold
T cell responses [12]: 1.21 fold

β1AR 301-320: 20-mer of mouse β1AR peptide library (SRLVALREQKALKTLGIIMG; UniProt P34971 301-320, looked up, fragment)
T cell responses [15]: 2.03 fold
T cell responses [16]: 1.93 fold

β1AR 81-100: 20-mer of mouse β1AR peptide library (VAIAKTPRLQTLTNLFIMSL; UniProt P34971 81-100, looked up, fragment)
T cell responses [9]: 1.65 fold
T cell responses [10]: 2.36 fold

β1AR 11-30: 20-mer of mouse β1AR peptide library (SEPCNLSSAAPLPDGAATAA; UniProt P34971 11-30, looked up, fragment)
T cell responses [3]: 1.84 fold
T cell responses [4]: 2.06 fold

β1AR 71-90: 20-mer of mouse β1AR peptide library (LIVVGNVLVIVAIAKTPRLQ; UniProt P34971 71-90, looked up, fragment)
T cell responses [9]: 2.71 fold
T cell responses [10]: 3.78 fold

β1AR 331-350: 20-mer of mouse β1AR peptide library (LANVVKAFHRDLVPDRLFVF; UniProt P34971 331-350, looked up, fragment)
T cell responses [5]: 1.05 fold
T cell responses [6]: 1.49 fold

β1AR 231-250: 20-mer of mouse β1AR peptide library (VSFYVPLCIMAFVYLRVFRE; UniProt P34971 231-250, looked up, fragment)
T cell responses [7]: 1.42 fold
T cell responses [8]: 1.85 fold

β1AR 351-370: 20-mer of mouse β1AR peptide library (FNWLGYANSAFNPIIYCRSP; UniProt P34971 351-370, looked up, fragment)
T cell responses [5]: 1.86 fold
T cell responses [6]: 1.82 fold

β1AR 51-70: 20-mer of mouse β1AR peptide library (APLSQQWTAGMGLLLALIVL; UniProt P34971 51-70, looked up, fragment)
T cell responses [9]: 1.10 fold
T cell responses [10]: 1.38 fold

β1AR 271-290: 20-mer of mouse β1AR peptide library (RPPSPEPSPSPGPPRPADSL; UniProt P34971 271-290, looked up, fragment)
T cell responses [15]: 1.05 fold
T cell responses [16]: 1.13 fold

β1AR 121-140: 20-mer of mouse β1AR peptide library (WGRWEYGSFFCELWTSVDVL; UniProt P34971 121-140, looked up, fragment)
T cell responses [13]: 1.08 fold
T cell responses [14]: 1.26 fold
